The record followed here is ChEMBL document CHEMBL1821683, “Synthesis of rhodamine B-benzenesulfonamide conjugates and their inhibitory activity against human α- and bacterial/fungal β-carbonic anhydrases” (Bioorg Med Chem Lett, 2011).

Among the targets are Carbonic anhydrase 9 (Homo sapiens, UniProt Q16790); Carbonic anhydrase 1 (Homo sapiens, UniProt P00915); Carbonic anhydrase 7 (Homo sapiens, UniProt P43166).
A further experiment has as its target T1, Carbonic anhydrase (Candida albicans (strain SC5314 / ATCC MYA-2876) (Yeast), UniProt Q5AJ71).
T1 sequence (Q5AJ71 whole entry): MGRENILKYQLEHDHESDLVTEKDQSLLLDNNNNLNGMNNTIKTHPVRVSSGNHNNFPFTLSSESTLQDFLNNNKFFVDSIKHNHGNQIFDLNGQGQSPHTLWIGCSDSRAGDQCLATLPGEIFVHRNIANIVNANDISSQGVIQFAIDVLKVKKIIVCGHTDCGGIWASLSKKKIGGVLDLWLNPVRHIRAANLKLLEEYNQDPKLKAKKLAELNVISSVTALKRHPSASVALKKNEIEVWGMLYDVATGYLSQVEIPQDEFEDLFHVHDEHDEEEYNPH

The next experiment deals with Carbonic anhydrase 12 (Homo sapiens, UniProt O43570). Description: Inhibition of human carbonic anhydrase 12 preincubated for 15 mins at pH 7.5 by stopped flow CO2 hydration method.
A further experiment addresses Carbonic anhydrase 2 (Homo sapiens, UniProt P00918). Description: Inhibition of human carbonic anhydrase 2 preincubated for 15 mins at pH 7.5 by stopped flow CO2 hydration method.

Chain of Carbonic anhydrase 1 (P00915 whole entry): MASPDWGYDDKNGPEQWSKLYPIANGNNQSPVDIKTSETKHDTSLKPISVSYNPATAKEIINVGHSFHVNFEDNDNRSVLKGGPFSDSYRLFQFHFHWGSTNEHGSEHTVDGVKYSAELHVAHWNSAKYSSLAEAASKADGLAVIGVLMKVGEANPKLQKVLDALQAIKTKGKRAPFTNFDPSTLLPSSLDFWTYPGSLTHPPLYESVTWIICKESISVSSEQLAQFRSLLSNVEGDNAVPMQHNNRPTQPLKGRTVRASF
Chain of Carbonic anhydrase 12 (O43570 whole entry): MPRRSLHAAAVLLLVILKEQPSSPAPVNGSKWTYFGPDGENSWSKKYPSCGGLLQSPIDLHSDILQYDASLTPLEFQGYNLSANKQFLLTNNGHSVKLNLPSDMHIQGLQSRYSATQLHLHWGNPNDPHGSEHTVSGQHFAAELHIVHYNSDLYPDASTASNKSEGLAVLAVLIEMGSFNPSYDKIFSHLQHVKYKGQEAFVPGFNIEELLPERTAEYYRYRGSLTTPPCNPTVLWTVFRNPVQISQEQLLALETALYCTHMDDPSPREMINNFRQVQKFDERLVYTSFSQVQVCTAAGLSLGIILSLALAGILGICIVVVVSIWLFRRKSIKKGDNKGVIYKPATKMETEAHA
Chain of Carbonic anhydrase 7 (P43166 whole entry): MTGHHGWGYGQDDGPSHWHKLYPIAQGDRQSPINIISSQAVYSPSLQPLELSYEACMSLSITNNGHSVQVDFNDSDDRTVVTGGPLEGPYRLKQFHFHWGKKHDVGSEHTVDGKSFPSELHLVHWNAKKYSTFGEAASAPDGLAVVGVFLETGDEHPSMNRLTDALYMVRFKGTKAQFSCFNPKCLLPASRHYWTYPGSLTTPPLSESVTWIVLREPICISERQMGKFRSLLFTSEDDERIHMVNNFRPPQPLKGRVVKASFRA

For the compound `CCN(CC)c1ccc2c(c1)Oc1cc(N(CC)CC)ccc1C21c2ccccc2C(=O)N1c1cccc(S(N)(=O)=O)c1`, the Ki on Carbonic anhydrase 9 is 24 nM; at Carbonic anhydrase it was 4100 nM; on Carbonic anhydrase 12, 10.5 nM; at Carbonic anhydrase 2, 21.5 nM; on Carbonic anhydrase 1, 311 nM; on Carbonic anhydrase 7, 12.1 nM.

As to `CCN(CC)c1ccc2c(c1)Oc1cc(N(CC)CC)ccc1C21c2ccccc2C(=O)N1CCc1ccc(S(N)(=O)=O)cc1`, the Ki on Carbonic anhydrase 9 was 19.4 nM; on Carbonic anhydrase, 4730 nM; at Carbonic anhydrase 12, 25.3 nM; on Carbonic anhydrase 2 it was 955 nM; at Carbonic anhydrase 1, 692 nM; at Carbonic anhydrase 7, 91.7 nM.

In the case of `CCN(CC)c1ccc2c(c1)Oc1cc(N(CC)CC)ccc1C21c2ccccc2C(=O)N1Cc1ccc(S(N)(=O)=O)cc1`, the Ki amounted to 10.2 nM on Carbonic anhydrase 9; 5320 nM at Carbonic anhydrase; 8.6 nM at Carbonic anhydrase 12; 980 nM at Carbonic anhydrase 2; 714 nM at Carbonic anhydrase 1; 34.9 nM on Carbonic anhydrase 7.

In the case of `CCN(CC)c1ccc2c(c1)Oc1cc(N(CC)CC)ccc1C21c2ccccc2C(=O)N1c1ccc(S(N)(=O)=O)cc1`, the Ki at Carbonic anhydrase worked out at 4990 nM; at Carbonic anhydrase 12, 9.1 nM; on Carbonic anhydrase 2, 279 nM; at Carbonic anhydrase 1 it was 512 nM; at Carbonic anhydrase 7 it was 60.2 nM.

By Ki is commonly meant a measure of affinity in units of concentration, obtained from inhibition or displacement. A low value points to tighter binding.
